Experimental data reported in patent US20040091860A1 (priority 1999, published 2004).

Columns and labels:
rice POX genes [1] = test: Inducibility of rice peroxidases to ethephon and MeJA (RNA gel blot analysis); format: in vivo, Oryza sativa cv. Nipponbare; settings: for response of R2151 gene expression to stimuli: R2151 gene (group A1), FIG. 8(d), day 16, compared with control; for expression of R2693, R2329, S11222, prxRPA, R2576, R2184 and C52903 POX genes: leaf blades of 16-day-old seedlings, 1 mM ethephon or 25 μM MeJA solution sprayed onto whole plants, 48 hours, versus leaf blade without stress
Method: Gene expression was analyzed by subjecting total RNAs isolated by the ATA method (Nagy et al., Reference 35) to RNA gel blot analysis (Ausubel et al., Reference 36).
cDNA fragments containing 3′ untranslated regions of 21 rice POX genes indicated by boxes in FIG. 1 were amplified by the PCR method. The amplified fragments were used as probes specific to the respective POX genes for the RNA gel blot analysis.
The above-described RNAs were subjected to electrophoresis, followed by transcription to a membrane (HyBond N, Amersham). The specific probes were allowed to hybridize, followed by washing for 5 min (once) and for 10 min (twice) in 2×SSC containing 0.1% SDS at room temperature, and then three times in 1×SSC containing 0.1% SDS for 15 min each at 65° C. Subsequently, the membrane was subjected to autoradiography at −80° C. using a film for autoradiography (XA OMT, Kodak) overnight or more. The recovered film was analyzed by the BAS2000 Bioimaging analyzer (Fuji Photo Film Co., Ltd.) or Phosphor Imager SI (Molecular Dynamics) in accordance with the manufacturer's instruction. The amount of RNA loaded was confirmed by monitoring the level of ribosome RNA (rRNA) stained by methylene blue. The expression amounts of the POXs were compared with each other with reference to the rRNA levels.
16-day-old seedlings were produced under the conditions described in Example 2. With these seedlings, the inducibility of rice peroxidases to ethephon (an ethylene release factor) and MeJA (a wound information transfer substance) was analyzed. For ethephon stimulus, 1 mM ethephon solution containing 0.05% ethanol was used. For MeJA stimulus, 25 μM MeJA solution containing 0.125% Triton X-100 was used. These solutions were sprayed onto whole plants, and maintained for 48 hours.
RNAs were extracted from the leaf blades of stimulated rice plants in a manner as described in Example 2. For each POX, expression specificity was analyzed. As a control, leaf blade without a stress were used.

rice POX genes [2] = test system: rice POX genes; parameters: species or system Oryza sativa cv. Nipponbare
[3] = test system: rice blast fungus (M. grisea race(003)); format: in vivo, Magnaporthe grisea; settings: compatible rice treated with probenazole (100 mg/ml) two days before M. grisea race(003), 1×10^5 spores/ml; untreated compatible rice: days 4 and 5
POX genes = format: in vivo, Oryza sativa cv. Nipponbare; settings: probenazole-treated rice, before and 2, 3, 4 and 5 days after rice blast fungus treatment; FIG. 24

SMILES	response of R2151 gene expression to stimuli (rice POX genes [1])	expression of R2693, R2329, S11222, prxRPA, R2576, R2184 and C52903 POX genes (rice POX genes [1])	other results
O=P(O)(O)CCCl [Ethephon, ethephon]	reducible responses	induced expression	
CC/C=C\CC1C(=O)CCC1CC(=O)OC (centres unmarked) [MeJA, methyl jasmonate]	reducible responses	induced expression	
C[n+]1ccc(-c2cc[n+](C)cc2)cc1 [paraquat, 1,1-dimethyl-4,4-dipyridinium dichloride]			expression of R2329, prxRPA, R2576 and C52903 (rice POX genes [2]): induced; expression of apoplastic (R2329, prx2576 and R2576) and vacuolar (e.g., R2184 and C52903) POXs (rice POX genes [2]): induced the expression
C=CCOC1=NS(=O)(=O)c2ccccc21 [probenazole]			lesion spot formation found on days after rice blast fungus treatment [3]: 2 to 3 days; expression patterns with E2184, R2576, R2693 and R2329 as probes (POX genes): significantly similar to the transition pattern of formation of lesion spots
